Assay results: patent US10960005B2, “Treatment of relapsed and/or refractory solid tumors and non-hodgkin's lymphomas” (CELGENE QUANTICEL RESEARCH, INC., priority 2016, dated 2021)
Read-outs that look alike come from different tables or passages of the source.

Tests used:
[1] = test system: LXFS 573 SCLC patient-derived xenograft; type: in vivo
[2] = 4-week toxicity study (no recovery period) in dogs (QW/Q2W); type: in vivo; settings: for AUC0-96 / Cmax: Dogs
Text: All animals survived to the terminal sacrifice.

[3] = test system: LXFS 615 SCLC patient-derived xenograft; settings: 5 mg base/kg; plasma after final dose
[4] = test system: H3K4me2 at ST18 and FREM2 gene loci in MS-1 cells; experiment: ChIP-seq LSD1 occupancy and H3K4me2 status, MS-1; type: cell-based, human; settings: 100 nM, 3 days
[5] = Pharmacokinetics after single IV and oral dose, Beagle dogs; type: in vivo; settings: Dog, male
Procedure: AUClast=area under the plasma concentration-time curve from time zero to time of last measurable concentration; Cmax=maximum plasma concentration; F=oral bioavailability; hr=hour, PK=pharmacokinetic; SD=standard deviation; t1/2 z=apparent half-life of the terminal phase of the concentration-time curve; tmax=time of Cmax. In mouse, PK parameters were determined using composite plasma samples obtained from n=3animals/time point. In other species, PK parameters are from n=3 animals and values shown are mean and SD (in parentheses).

[6] = test system: LU1480 SCLC patient-derived xenograft; experiment: Efficacy in LU1480 HuPrime SCLC PDX model; type: in vivo, mice
[7] = Compound A 1 mg/kg in combination with etoposide 24 mg/kg
[8] = Day 1, 0.125 mg base/kg/dose oral QW, Sexes Combined
[9] = Day 1, 0.25 mg base/kg/dose oral QW, M
[10] = Day 1, 0.5 mg base/kg/dose oral Q2W, M
[11] = Day 15, 0.125 mg base/kg/dose oral QW, F
[12] = Day 15, 0.125 mg base/kg/dose oral QW, M
[13] = Day 15, 0.125 mg base/kg/dose oral QW, Sexes Combined

SMILES: COc1ccc(-c2c(-c3ccc(C#N)c(F)c3)nc(N3CCC(N)CC3)n(C)c2=O)cc1F [Compound A]
- % TGD [1, 7]: 38%
- TGD [1, 7]: 16 days
- median TTE [1, 7]: 59 days
- survivors on Day 133 ([1]; Compound A 1 mg/kg in combination with etoposide 24 mg/kg, of eight): 1
- TGD ([1]; Compound A 2.5 mg/kg in combination with etoposide 24 mg/kg): 79 days
- survivors on Day 133 ([1]; Compound A 2.5 mg/kg in combination with etoposide 24 mg/kg, of eight): 3
- TGD ([1]; Compound A 5 mg/kg in combination with etoposide 24 mg/kg): 91 days
- survivors on Day 133 ([1]; Compound A 5 mg/kg in combination with etoposide 24 mg/kg, of eight): 8
- study survivors on Day 133 ([1]; Compound A monotherapy 5 mg/kg, of eight): seven
- combined Day 15 mean AUC ([2]; 0.125 mg base/kg/dose QW): 0.127 µg·h/mL
- combined Day 15 mean Cmax ([2]; 0.125 mg base/kg/dose QW): 0.00526 µg/mL
- combined Day 15 mean AUC ([2]; 0.25 mg base/kg/dose QW): 0.287 µg·h/mL
- combined Day 15 mean Cmax ([2]; 0.25 mg base/kg/dose QW): 0.011 µg/mL
- combined Day 15 mean AUC ([2]; 0.5 mg base/kg/dose Q2W): 0.636 µg·h/mL
- combined Day 15 mean Cmax ([2]; 0.5 mg base/kg/dose Q2W): 0.022 µg/mL
- AUC0-96 ([2]; Day 1, 0.125 mg base/kg/dose oral QW, F): 0.127 µg·h/mL
- AUC0-96 [2, 8]: 0.12 µg·h/mL
- Cmax [2, 8]: 0.00579 µg/mL
- AUC0-96 [2, 9]: 0.335 µg·h/mL
- Cmax [2, 9]: 0.0119 µg/mL
- Cmax ([2]; Day 1, 0.25 mg base/kg/dose oral QW, Sexes Combined): 0.012 µg/mL
- Cmax ([2]; Day 1, 0.5 mg base/kg/dose oral Q2W, F): 0.0266 µg/mL
- AUC0-96 [2, 10]: 0.762 µg·h/mL
- Cmax [2, 10]: 0.024 µg/mL
- Cmax ([2]; Day 1, 0.5 mg base/kg/dose oral Q2W, Sexes Combined): 0.0253 µg/mL
- AUC0-96 [2, 11]: 0.141 µg·h/mL
- Cmax [2, 11]: 0.00554 µg/mL
- AUC0-96 [2, 12]: 0.107 µg·h/mL
- Cmax [2, 12]: 0.00489 µg/mL
- AUC0-96 [2, 13]: 0.127 µg·h/mL
- Cmax [2, 13]: 0.00526 µg/mL
- Cmax ([2]; Day 15, 0.25 mg base/kg/dose oral QW, Sexes Combined): 0.011 µg/mL
- Cmax ([2]; Day 15, 0.5 mg base/kg/dose oral Q2W, Sexes Combined): 0.022 µg/mL
- treatment-related adverse finding ([2]; single female, 0.25 mg base/kg/dose QW): Moderate acute inflammation in the ileum and marked acute inflammation in the cecum
- AUC0-24 [3]: 1,617 ng·hr/mL
- H3K4me2 at the LSD1 binding site of ST18 gene [4]: increased H3K4me2
- AUC∞ ([5]; single IV 1 mg base/kg): 1.944 µg·h/mL
- CL ([5]; single IV 1 mg base/kg): 0.54 L/h/kg
- Vss ([5]; single IV 1 mg base/kg): 11.058 L/kg
- t1/2,z ([5]; single IV 1 mg base/kg): 15.5 h
- % F ([5]; single oral 1 mg base/kg): 84%
- AUClast ([5]; single oral 1 mg base/kg): 1.089 µg·h/mL
- Cmax ([5]; single oral 1 mg base/kg): 0.069 µg/mL
- t1/2,z ([5]; single oral 1 mg base/kg): 15.0 h
- tmax ([5]; single oral 1 mg base/kg): 2.0 h
- % F ([5]; single oral 3 mg base/kg): 100%
- AUClast ([5]; single oral 3 mg base/kg): 3.792 µg·h/mL
- Cmax ([5]; single oral 3 mg base/kg): 0.298 µg/mL
- t1/2,z ([5]; single oral 3 mg base/kg): 19.4 h
- tmax ([5]; single oral 3 mg base/kg): 1.0 h
- % F ([5]; single oral 6 mg base/kg): 100%
- AUClast ([5]; single oral 6 mg base/kg): 8.792 µg·h/mL
- Cmax ([5]; single oral 6 mg base/kg): 0.627 µg/mL
- t1/2,z ([5]; single oral 6 mg base/kg): 17.8 h
- tmax ([5]; single oral 6 mg base/kg): 1.0 h
- % TGI ([6]; 10 mg base/kg PO QD × 21): 72%
- TGI ([6]; 10 mg base/kg orally for 15 days (second LU1480 experiment)): 46%
